Tests used:
HepG2 = test: Cytotoxicity assay (Alamar blue), HepG2; type: cell-based; conditions: HepG2, 24 h
[1] = Critical micelle concentration (CMC) assay; type: physicochemical; conditions: threshold concentration of micelle formation in 200 mM NaCl or FP buffer
Method: Critical micelle concentration was determined based on the incorporation of fluorescent 1,6-diphenyl-1,3,5-hexatriene (DPH) into micelles (Chattopadhyay and London, 1984). Small molecules and positive controls (neutral detergent Triton X100 and anionic detergent SDS) were cascade diluted in low binding 96-well plates from 1000 μM to 0.1 μM. Dilutions were performed in 200 mM NaCl or FP buffer. DPH was supplemented at 5 μM into black 384-well plates. Fluoresence intensity (λexc=360 nm, λem=430 nm) was measured following a 30-min incubation at room temperature, to graphically estimate CMC transition.

[2] = tested on: SOX binding site consensus DNA; test: Direct DNA-binding assay (SPR), consensus DNA; conditions: biotinylated double-strand DNA on streptavidin chip
Method: Compounds were tested at a 1% v/v DMSO in HBS-EP buffer (10 mM HEPES, 150 mM NaCl, 3 mM EDTA, 0.005% v/v polysorbate 20, pH 7.4). The same buffer supplemented with 1% v/v DMSO was used as a mobile phase. DNA minor groove binder DAPI (4′,6-diamidino-2-phenylindole), DNA intercalator and minor groove binder actinomycin D, and DNA intercalator ethidium bromide were used as positive controls. Biotinylated (one tag per probe) double strand DNA probes were prepared using a standard annealing routine (5 min at 100° C., room temperature overnight and stored at −20° C.) of single strand anti-parallel DNA Probes purchased from Geneworks and were immobilized on CM5-SA streptavidin chips as per manufacturer's recommendations. […] All sample and control cycles were performed in triplicate. DMSO calibration was performed as per manufacturer's recommendations. After each injection, an extra flow system wash was performed with 50% v/v DMSO to avoid carryover. Experiments were run on a Biacore T200 (GE Healthcare, USA), with one flow cell kept as a reference.
From a molecular viewpoint, an inhibitor of SOX18-DNA binding could act either by interacting directly with the DNA, or the protein, or at the interface between protein and DNA. Binding of small molecules directly to the DNA, even though reported for other TFs (Leung et al., 2013), has the potential for unspecific DNA binding, leading to possible genotoxicity, mutagenicity, or carcinogenicity. For this reason, we developed a direct binding assays to determine whether the active compounds interact directly with DNA or protein. A surface plasmon resonance-based method was developed to analyse the binding of small molecules to biotinylated double stranded DNA immobilized on the surface of a streptavidin chip. The method measures the rate of binding (kon), dissociation (koff) and binding constant (KD), and was used to measure the binding to two different DNA sequences: SOX binding site consensus DNA, and scrambled DNA. Intercalating agents ethidium bromide and Actinomycin D, and the minor groove-binding agent 4′,6-diamino-2-phenylindole (DAPI) were used as positive controls for unselective DNA binding.

ovine COX1 = ovine COX1 (Ovis aries (Sheep), UniProt P05979); test: COX1 enzymatic assay; type: biochemical; conditions: up to a concentration of 200 μM
Chain of ovine COX1 (P05979 25-600): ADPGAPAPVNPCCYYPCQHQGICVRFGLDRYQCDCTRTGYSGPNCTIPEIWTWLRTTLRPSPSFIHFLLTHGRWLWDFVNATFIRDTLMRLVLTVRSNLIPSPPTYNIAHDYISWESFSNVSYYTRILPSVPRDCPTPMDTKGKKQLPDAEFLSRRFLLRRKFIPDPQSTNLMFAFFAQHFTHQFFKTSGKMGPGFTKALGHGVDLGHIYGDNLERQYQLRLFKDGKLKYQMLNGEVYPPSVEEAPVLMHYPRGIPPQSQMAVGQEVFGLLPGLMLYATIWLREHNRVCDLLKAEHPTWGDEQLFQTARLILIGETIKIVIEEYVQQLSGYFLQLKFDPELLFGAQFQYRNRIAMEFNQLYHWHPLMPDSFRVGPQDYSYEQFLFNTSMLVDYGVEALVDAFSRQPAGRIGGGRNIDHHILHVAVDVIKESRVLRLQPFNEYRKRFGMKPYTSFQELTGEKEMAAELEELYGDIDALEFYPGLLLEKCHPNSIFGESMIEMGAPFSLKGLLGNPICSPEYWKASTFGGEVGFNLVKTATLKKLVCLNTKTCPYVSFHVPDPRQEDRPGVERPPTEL
Method: COX inhibition activity was measured using COX1 and COX2 inhibitor screening assay kits from Cayman Chemical Company (Ref #701090 and 701080). All compounds were tested in quadruplicate at a single 200 μM concentration in 2% v/v final DMSO. Compounds were preincubated with ovine COX1 or human COX2 at 37° C. for 10 min before incubation with COX substrate arachidonic acid for another 3 min. Reactions were stopped by addition of concentrated hydrochloric acid. Prostanoid standard curve was prepared and enzyme immunoassay performed as per manufacturer's description. […] Prostanoid standards values were plotted as logit (B/B0) versus log concentrations and fitted with linear regression using GraphPad Prism version 6.0. Standard curve linear fit was used to calculate each samples concentrations.

mouse SOX18-HMG (109aa) = mouse SOX18-HMG (109aa) (Mus musculus (Mouse), UniProt P43680); test: Direct protein binding assay (thermal aggregation, static light scattering); conditions: 500 μM for Sm4 and Sm14, 1.5 mM for Sm5
Chain of mouse SOX18-HMG (109aa) (P43680 69-177): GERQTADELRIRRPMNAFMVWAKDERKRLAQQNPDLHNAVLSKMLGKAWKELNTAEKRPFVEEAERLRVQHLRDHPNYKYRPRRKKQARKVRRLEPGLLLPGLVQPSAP

| CMC [1] [µM] | binding to consensus DNA (SPR) [2] | increase in Tagg (mouse SOX18-HMG (109aa)) | SMILES | CC50 (HepG2) [µM] | COX-1 inhibitory activity (ovine COX1) |
| --- | --- | --- | --- | --- | --- |
| – | – | – | CCN(CC)C(=O)c1c(O)cc(O)cc1CCc1ccc2ccccc2c1 [Sm26, N,N,diethyl-2,4-hydroxy-6-(2-(naphthalen-2-yl)ethyl)benzamide] | 16.8 | – |
| >1000 | do not bind | more than 3 °C | O=C(O)c1c(O)cccc1COCCc1ccccc1 [Sm5] | – | None of the SOX18 inhibitor display any COX-1 or COX-2 inhibitory activity |

Source: patent US20240002326A1, “COMPOUNDS AND USE THEREOF IN METHODS OF TREATMENT” (The University of Queensland, priority 2016, published 2024)
